Laboratory results: patent publication US6600047B2, “Process for making amlodipine maleate” (Synthon BV, priority 2001, dated 2003)

melting point: 178 to 183 °C (dec.)
SMILES: CCOC(=O)C1=C(COCCNC(CC(=O)O)C(=O)O)NC(C)=C(C(=O)OC)C1c1ccccc1Cl (stereo not shown) [formula (1)]
